Measurements taken from US20130136724A1, “PIG FEED, AND METHOD FOR FEEDING SAME” (Kaneka Corporation, priority 2010, published 2013).

Columns and labels:
Type in all cases: in vivo, swine
[1] = Coenzyme Q10 content in colostrum of mother sows by HPLC (Example 1); settings: colostrum (first day) of mother sows, 60 ppm in feed, vs periods without administration
Protocol: About 160 mother sows from an actual swine farm were used and the study group was fed with feeds (coenzyme Q content in all feeds: 60 ppm) which were prepared by mixing coenzyme Q10 in normal feeds for mother sows (“ecobreed” during pregnancy, “ecolitter” during lactation). This feed test continued for eight months in which feeding to all the mother sows was simultaneously started and simultaneously finished. Before and after the test period, only the original feeds for mother sows were fed. […] Additionally, in order to analyze the coenzyme Q10 content in milk of mother sows during lactation, about 15 ml of colostrum (first day) were sampled in a 50-ml disposal tube from six mother sows during lactation in the periods in which coenzyme Q10 was administered to them or the periods in which coenzyme Q10 was not administered to them, and the samples were analyzed for coenzyme Q10 and the ratio of the reduced form and the oxidized form of coenzyme Q10 by HPLC.

[2] = test system: mother sows; assay: Feed test in mother sows, coenzyme Q10 60 ppm in feeds for eight months (Example 1)
Protocol: About 160 mother sows from an actual swine farm were used and the study group was fed with feeds (coenzyme Q content in all feeds: 60 ppm) which were prepared by mixing coenzyme Q10 in normal feeds for mother sows (“ecobreed” during pregnancy, “ecolitter” during lactation). This feed test continued for eight months in which feeding to all the mother sows was simultaneously started and simultaneously finished. Before and after the test period, only the original feeds for mother sows were fed. In this test of feeding to the sows at pregnancy period, as the pregnancy period of sows continues 114 days and the interval to the next conception after parturition is about 31 days, it is apparent that in this test, coenzyme Q10 was administered to the mother sows in various stages of pregnancy or lactation which include a specific period in latter pregnancy, the entire pregnancy period, periods prior to or after mating, and a period from mating to early pregnancy. The mother sows were reared and managed in a common manner. In order to confirm that coenzyme Q10 was mixed in the feeds for mother sows, about 100 g of each coenzyme Q10-containing test feed were sampled from three points of different feeders after one week from the preparation thereof in the test period and the each sample was analyzed.

[3] = test system: mother sows; assay: Coenzyme Q10 fed to mother sows in middle or late pregnancy, growth of postnatal piglets (Example 3)
Source text: Test groups A to D were fed with feeds prepared by adding coenzyme Q10 at 100 ppm or 400 ppm to a normal feed for mother sows (crude protein 15.0% or more, crude fat 2.0% or more, crude fiber 5.0% or less, crude ash 8.0% or less, calcium 0.6% or more, phosphorus 0.4% or more, TDN 74.0% or more) in middle pregnancy (test groups A and B) or late pregnancy (test groups C and D), and were fed only with the normal feed for mother sows in the other periods. A control group was fed only with the normal feed for mother sows throughout the entire pregnancy period. Here, the term of “middle pregnancy” refers to the period from the 39th day until the 76th day after mating, and the term of “latter pregnancy” refers to the period (about 38 days) from the 77th day after mating until parturition. The test continued for about five and a half months. Also, coenzyme Q10 was not administered to the mother sows during lactation and the piglets born to the mother sows. As for head count of mother sows, each of control and test groups consisted of five mother sows per test, and the same test was repeated three times. Consequently, […]. Primiparous sows were not used, and only multiparous sows (para 2 to 10) were used for the test. A coenzyme Q10-containing premix was prepared by adding coenzyme Q10 to defatted rice bran to be a concentration of 1/60, and was mixed with the normal feed with a measuring spoon (15 g/spoon) to the above-mentioned coenzyme Q10 concentrations. The feeds thus prepared were fed in a common manner. The average amount of the feed per mother sow was 2.5 kg/day in all the groups. The mother sows and the piglets born to the mother sows were reared in accordance with rearing management standards of the farm. The piglets born to the mother sows of the respective groups were evaluated for weight at birth, weight at weaning, and the like.

[4] = test system: mother sows; assay: Interval of recurrent estrous of coenzyme Q10-fed mother sows (Example 6); settings: 100 ppm in feed
Protocol: A coenzyme Q10-fed test group was fed with a feed prepared by adding coenzyme Q10 at a concentration of 100 ppm to a normal feed for mother sows (Kyodo Shiryo Co., Ltd.) for a test period (four months). A control group was fed with only the normal feed for mother sows. Estrous cycles were evaluated by observing whether sows were in estrus for three months from one month after the start of the test until the end of the test. The test group consisted of 1055 mother sows, and the control group consisted of 1022 sows.

[5] = test system: piglets; assay: Feeding coenzyme Q10 to piglets of coenzyme Q10-fed mother sows through weaning, piglet and fattening periods (Example 2); settings: piglets fed about 80 ppm in weaning period feed, vs control group
Source text: The piglets of the mother sows to which coenzyme Q10 had been administered in the test of Example 1 were fed with the following feeds: a feed prepared by adding coenzyme Q10 at about 80 ppm to a normal feed (“Healthy Pig” (registered trademark)) for the weaning period; and feeds prepared by adding coenzyme Q10 at 40 ppm to normal feeds (“Take Five” for the former half of the piglet period, “Nobita kun” for the latter half of the piglet period, and “NIC Niku Buta EX” for the fattening period). The piglets were reared and managed in a common manner. In all the periods, control groups were set up for each to which coenzyme Q10 was not administered, and the control group was also reared in a common manner.
The “weaning period” refers to the period from the 3rd day until 26th day after birth, and the “piglet period” refers to the period from the 27th day until the 84th day after birth.

[6] = test system: mother sows; assay: Fertility of second mating of coenzyme Q10-fed mother sows (Example 5); settings: 100 ppm in feed, four months, pregnancy determined on the 28th day after second mating
Protocol: A coenzyme Q10-fed test group was fed with a feed prepared by adding coenzyme Q10 at a concentration of 100 ppm to a normal feed for mother sows (Kvodo Shiryo Co., Ltd.) for a test period (four months). A control group was fed with only the normal feed for mother sows. The sows were tested for pregnancy on the 28th day after mating, and unfertilized sows were mated again. The fertility was evaluated as a pregnancy rate for three months from one month after the start of the test until the end of the test. Whether the sows were pregnant (fertilized) was determined by sonography or the like on the 28th day after first mating and second mating. The test group consisted of 952 mother sows, and the control group consisted of 992 mother sows.

[7] = test system: mother sows; assay: Coenzyme Q10 fed to mother sows in early, middle or latter pregnancy, farrowing rate and number of weaned piglets (Example 4); settings: for Number of weaned piglets (average per mother sow): 100 ppm in feed of mother sows
Source text: Test groups E to G were fed with a feed prepared by adding coenzyme Q10 at a concentration of 100 ppm to a normal feed for mother sows (crude protein 15.0% or more, crude fat 2.0% or more, crude fiber 5.0% or less, crude ash 8.0% or less, calcium 0.6% or more, phosphorus 0.4% or more, TDN 74.0% or more) in early pregnancy period (test group […]), middle pregnancy period (test group F) or latter pregnancy period (test group G), and were fed only with the normal feed for mother sows in the other periods. A control group was fed only with the normal feed for mother sows throughout the entire pregnancy period. The “early pregnancy” refers to the period from mating until the 38th day, the “middle pregnancy” refers to the period from the 39th day until the 76th day after mating, and the “latter pregnancy” refers to the period (about 38 days) from the 77th day after mating until parturition. Although whether sows are pregnant can be determined by sonography generally on the 25th or 26th day after mating, the test feeding was started without checking whether the mother sows were pregnant in this test. Sows that were found not to be pregnant later were eliminated from the test. Coenzyme Q10 was not administered to the mother sows during lactation and piglets born to the mother sows. Each of control and test groups consisted of five mother sows per test, and the same test was repeated three times. Consequently, 15 sows in total were tested per group. Primiparous sows were not used, and only multiparous sows (para 2 to 10) were used for the test. A coenzyme Q10-containing premix was prepared by adding coenzyme Q10 to defatted rice bran to a concentration of 1/60. This premix was added to the normal feed with a measuring spoon (15 g/spoon) to the above-mentioned coenzyme Q10 concentrations. The feeds thus prepared were fed in a common manner. The amount of the feed fed to each mother sow was 2.5 kg/day in average in all the groups. The mother sows and piglets born to the mother sows were reared in accordance with rearing management standards of the farm. The respective groups were evaluated based on the number of piglets (the number of total births) per mother sow, and the number of living piglets among them (the number of live births), and the number of piglets that survived to weaning (the number of weaned piglets).

[8] = 60 ppm in feed, vs periods in which coenzyme Q10 was not administered
[9] = piglets born to mother sows fed 60 ppm, vs piglets reared in a conventional manner
[10] = early pregnancy, 100 ppm, compared to the control group

SMILES: COC1=C(OC)C(=O)C(C/C=C(\C)CC/C=C(\C)CC/C=C(\C)CC/C=C(\C)CC/C=C(\C)CC/C=C(\C)CC/C=C(\C)CC/C=C(\C)CC/C=C(\C)CCC=C(C)C)=C(C)C1=O [coenzyme Q10]
- coenzyme Q10 content in colostrum [1]: apparently higher
- frequency of albinism [2, 8]: decreased
- frequency of mummified [2, 8]: decreased
- number of milk-fed piglets [2, 8]: increased
- number of total births [2, 8]: increased
- number of weaned piglets [2, 8]: increased
- body weight of piglets after three weeks from birth [2, 9]: heavier
- episodes of diarrhea in piglets [2, 9]: less episodes
- Weight at weaning (average, kg) ([3]; Test group A: middle pregnancy, 100 ppm in feed of mother sows): 8.37 kg
- Weight at weaning (average, kg) ([3]; Test group B: middle pregnancy, 400 ppm in feed of mother sows): 8.26 kg
- Weight at weaning (average, kg) ([3]; Test group C: late pregnancy, 100 ppm in feed of mother sows): 8.55 kg
- Weight at weaning (average, kg) ([3]; Test group D: late pregnancy, 400 ppm in feed of mother sows): 8.51 kg
- weight at birth ([3]; test groups (100 or 400 ppm, middle or late pregnancy) vs control group): not so different
- interval of recurrent estrous ([4]; four months): 5.59 days
- shortening of the interval of recurrent estrous ([4]; test group vs control group): 0.33 days
- number of weaned piglets per mother sow [5]: larger
- fertility of second mating (pregnancy rate) [6]: 94%
- Number of weaned piglets (average per mother sow) ([7]; Test group E: early pregnancy): 10.4
- Number of weaned piglets (average per mother sow) ([7]; Test group F: middle pregnancy): 9.6
- Number of weaned piglets (average per mother sow) ([7]; Test group G: late pregnancy): 9.7
- increase in the average number of weaned piglets per mother sow [7, 10]: not less than 1
- increase in the number of live births [7, 10]: not less than 1
- increase in the number of total births [7, 10]: not less than 1
